# From BindingDB's records for doi:10.1021/jm970742b (University of Pennsylvania, 1998)
# Molecular target: Sodium-dependent dopamine transporter (Rattus norvegicus, UniProt P23977)
# Assay: In vitro binding affinity towards dopamine transporter in rat striatal homogenate with [125I]IPT as the radioligand
# Sodium-dependent dopamine transporter, sequence (P23977 whole entry): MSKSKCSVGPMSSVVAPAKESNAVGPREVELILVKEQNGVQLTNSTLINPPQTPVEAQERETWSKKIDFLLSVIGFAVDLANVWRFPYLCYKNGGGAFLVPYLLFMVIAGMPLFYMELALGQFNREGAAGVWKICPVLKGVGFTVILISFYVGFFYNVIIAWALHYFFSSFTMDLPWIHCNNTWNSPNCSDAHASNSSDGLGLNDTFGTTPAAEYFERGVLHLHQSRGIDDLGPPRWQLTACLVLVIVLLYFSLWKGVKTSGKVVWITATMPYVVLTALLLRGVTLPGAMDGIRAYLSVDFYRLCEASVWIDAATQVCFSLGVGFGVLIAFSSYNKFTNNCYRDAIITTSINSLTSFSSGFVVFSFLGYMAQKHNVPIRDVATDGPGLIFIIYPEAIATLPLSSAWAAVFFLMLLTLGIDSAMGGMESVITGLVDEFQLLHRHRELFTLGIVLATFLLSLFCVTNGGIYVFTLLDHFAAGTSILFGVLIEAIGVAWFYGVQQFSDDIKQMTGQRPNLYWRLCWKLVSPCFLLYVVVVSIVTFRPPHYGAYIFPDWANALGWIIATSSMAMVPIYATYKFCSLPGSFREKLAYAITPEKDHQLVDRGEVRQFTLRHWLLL
row,Compound,Ki [nM]
1,"CN1C2CCC1[C@H](c1ccc(Cl)cc1)[C@H]2CN1CC[S][Re]2(=[O])[S]CC[N]2CC1 (stereo partly drawn) [2-[[2-[[[3-(4-chlorophenyl)-8-methyl-8-azabicyclo[3.2.1]oct-2-yl]methyl](2-mercaptoethyl)amino]ethyl]amino]ethanethiolato(3-)-oxo-[1R-(exo-exo)]-;2-{Oxo[N(R),N-bis(2-mercaptoethyl)ethylenediaminato]rhenium(V)methyl}-3-(4-chlorophenyl)tropane]",13.9
2,"CN1C2CCC1[C@H](c1ccc(Cl)cc1)[C@@H]2CN1CC[S][Re]2(=[O])[S]CC[N]2CC1 (stereo partly drawn) [2-[[2-[[[3-(4-chlorophenyl)-8-methyl-8-azabicyclo[3.2.1]oct-2-yl]methyl](2-mercaptoethyl)amino]ethyl]amino]ethanethiolato(3-)-oxo-[1R-(exo-exo)]-;2-{Oxo[N(S),N-bis(2-mercaptoethyl)ethylenediaminato]rhenium(V)methyl}-3-(4-chlorophenyl)tropane]",8.42
